How the values were obtained:
[1] = system: Nx rats (5/6 nephrectomy, hypertensive chronic kidney disease); assay: Nx rats treated with various HIF prolyl hydroxylase inhibitors, change in systolic blood pressure after four weeks, Example 4; assay type: in vivo, rat; settings: 40 mg/kg oral
Protocol: (§1) A characteristic pathophysiology found in the uremic chronic kidney disease (CKD) population is hypertension. […] (Priyadarshi et al. (2002) Kidney Int 61:542-546; Coleman et al. (2006) Proc Natl Acad Sci USA 103:5965-5970.) The surgical procedure used to generate the rat remnant kidney was performed according to modification of the procedure described by Priyadarshi et al. (supra) or according to modification of the procedure described by Tanaka et al. (2005, Lab Invest 85:1292-1307). Separate studies used either male Sprague Dawley rats (280-300 g) or female Wistar rats (220-250 g).
Animals were divided into two groups of which one group (sham) underwent sham surgery and the other group (Nx) was subjected to 5/6 nephrectomy as follows. Animals were anesthetized under isoflurane, and a midline abdominal incision was made, followed by blunt dissection of the renal pedicles. Two or three branches of the left renal artery were ligated to infarct two thirds of the left kidney, while the right kidney underwent simultaneous nephrectomy. The infarct was verified by observing the change in kidney color. Animal body temperature was maintained constant, and warm (˜37° C.) saline (1.0 mL) was administered directly into the abdomen. Thereafter, the incision was sutured and the animal was allowed to recover and have free access to regular food and water. Animal body weight and mortality were closely monitored.
Starting 35 days after surgery, Nx and sham animals were randomly divided into groups and treated with either vehicle or compound A. Compound was dosed three times per week by oral gavage at 20 or 40 mg/kg compound per dose. Blood pressure (BP) was measured using a Kent XBP1000 system (Kent Scientific Corp., Torrington, Conn.) or a Muromachi tail-cuff blood pressure system (Muromachi Kikai Co., Ltd., Tokyo, Japan), both having volume/pressure recording technology and used according to the manufacturer's instruction. Rats were slightly warmed under a lamp and conditioned carefully before the measurement. BP was recorded as the mean value of 3 separate measurements obtained at each session and reported herein as mean±SEM. Results are compared using 1-way analysis of variance (ANOVA) and Student-Newman-Keuls method (SigmaStat, SPSS Science, Chicago, Ill.).
In another series of experiments, rats subjected to 5/6 nephrectomy were treated 35 days after surgery according to the dosing schedule described in Example 3 above with a HIF prolyl hydroxylase inhibitor. Individual compound selected from the group consisting of compounds A and C-K were administered by oral gavage at 8, 20, 30, or 40 mg/kg (see Table 1 and Table 2). Systolic blood pressure was recorded at day 35 (baseline) and again immediately following the last dose of compound. Table 1 and Table 2 show changes in systolic blood pressure following four weeks of oral administration of various compounds of the present invention to Nx rats.

[2] = system: human subjects with chronic kidney disease; assay: Blood pressure in human CKD subjects over a 24 hour period after oral dosing, Example 5; assay type: in vivo
Protocol: Hypertension is a common condition in patients with chronic kidney disease. (Agarwal et al. (2005) Hypertension 46:514-520.) The effect of a compound of the present invention on blood pressure in anemic and non-anemic human subjects with advanced stage chronic kidney disease was examined. All study subjects had chronic kidney disease (CKD), defined as having a glomerular filtration rate (GFR)<59 ml/min. Some of these CKD subjects also had anemia, defined as having hemoglobin (Hb) levels<11 g/dL. Subjects were orally administered compound A or a placebo two or three times per week for four weeks. Blood pressure readings (i.e. systolic, diastolic, and mean arterial pressure) were taken at various times with a sphygmomanometer according to standard assessments. In one series of experiments, the effect of methods and medicaments of the present invention on blood pressure in anemic and non-anemic subjects with advanced stage chronic kidney disease was examined over a 24 hour period. Subjects were orally administered compound A or a placebo and blood pressure readings were taken at 1, 2, 3, 4, 6, 12, and 24 hours following treatment. […] Table 3, Table 4, and Table 5 below show hourly changes in mean arterial pressure (MAP), systolic blood pressure (SBP), and diastolic blood pressure (DBP) following oral administration of […] to human CKD subjects.

[3] = system: Nx rats (5/6 nephrectomy, hypertensive chronic kidney disease); assay: Rat remnant kidney model (5/6 nephrectomy) of CKD, tail-cuff systolic blood pressure, Example 3; assay type: in vivo; settings: mean±SEM, p<0.05 vs vehicle-treated Nx rats (195.7±24.4)
Protocol: as §1
Animals were divided into two groups of which one group (sham) underwent sham surgery and the other group (Nx) was subjected to 5/6 nephrectomy as follows. […] Animal body weight and mortality were closely monitored.
Starting 35 days after surgery, Nx and sham animals were randomly divided into groups and treated with either vehicle or compound A. Compound was dosed three times per week by oral gavage at 20 or 40 mg/kg compound per dose. Blood pressure (BP) was measured using a Kent XBP1000 system (Kent Scientific Corp., Torrington, Conn.) or a Muromachi tail-cuff blood pressure system (Muromachi Kikai Co., Ltd., Tokyo, Japan), both having volume/pressure recording technology and used according to the manufacturer's instruction. […]

Cc1nc(C(=O)NCC(=O)O)c(O)c2ccc(Oc3ccccc3)cc12 [A, [(4-hydroxy-1-methyl-7-phenoxy-isoquinoline-3-carbonyl)-amino]-acetic acid]
SBP (mmHg) Change from Baseline [1]: −31.10 mmHg | SBP (mmHg) Change from Vehicle [1]: −40.31 mmHg | Mean change from Baseline Diastolic BP (mmHg) ([2]; All Subjects, 3 hour): −5.45 mmHg | Mean change from Baseline MAP (mmHg) ([2]; All Subjects, 3 hour): −4.35 mmHg | Mean change from Baseline Systolic BP (mmHg) ([2]; All Subjects, 3 hour): −2.09 mmHg | Mean change from Baseline Diastolic BP (mmHg) ([2]; All Subjects, 4 hour): −6.36 mmHg | Mean change from Baseline MAP (mmHg) ([2]; All Subjects, 4 hour): −6.60 mmHg | Mean change from Baseline Systolic BP (mmHg) ([2]; All Subjects, 4 hour): −7.00 mmHg | Mean change from Baseline Diastolic BP (mmHg) ([2]; All Subjects, 6 hour): −7.00 mmHg | Mean change from Baseline MAP (mmHg) ([2]; All Subjects, 6 hour): −9.18 mmHg | Mean change from Baseline Systolic BP (mmHg) ([2]; All Subjects, 6 hour): −13.45 mmHg | Mean change from Baseline Diastolic BP (mmHg) ([2]; All Subjects, 12 hour): −2.55 mmHg | Mean change from Baseline MAP (mmHg) ([2]; All Subjects, 12 hour): −3.29 mmHg | Mean change from Baseline Systolic BP (mmHg) ([2]; All Subjects, 12 hour): −4.73 mmHg | Mean change from Baseline Diastolic BP (mmHg) ([2]; All Subjects, 24 hour): −1.55 mmHg | Mean change from Baseline MAP (mmHg) ([2]; All Subjects, 24 hour): −2.55 mmHg | Mean change from Baseline Systolic BP (mmHg) ([2]; All Subjects, 24 hour): −4.45 mmHg | Mean change from Baseline Diastolic BP (mmHg) ([2]; Anemic, 3 hour): −13.67 mmHg | Mean change from Baseline MAP (mmHg) ([2]; Anemic, 3 hour): −11.10 mmHg | Mean change from Baseline Systolic BP (mmHg) ([2]; Anemic, 3 hour): −6.33 mmHg | Mean change from Baseline Diastolic BP (mmHg) ([2]; Anemic, 4 hour): −12.67 mmHg | Mean change from Baseline MAP (mmHg) ([2]; Anemic, 4 hour): −14.67 mmHg | Mean change from Baseline Systolic BP (mmHg) ([2]; Anemic, 4 hour): −19.00 mmHg | Mean change from Baseline Diastolic BP (mmHg) ([2]; Anemic, 6 hour): −10.00 mmHg | Mean change from Baseline MAP (mmHg) ([2]; Anemic, 6 hour): −12.33 mmHg | Mean change from Baseline Systolic BP (mmHg) ([2]; Anemic, 6 hour): −17.33 mmHg | Mean change from Baseline Diastolic BP (mmHg) ([2]; Anemic, 12 hour): −5.00 mmHg | Mean change from Baseline MAP (mmHg) ([2]; Anemic, 12 hour): −2.00 mmHg | Mean change from Baseline Systolic BP (mmHg) ([2]; Anemic, 12 hour): 3.67 mmHg | Mean change from Baseline Diastolic BP (mmHg) ([2]; Anemic, 24 hour): −3.33 mmHg | Mean change from Baseline MAP (mmHg) ([2]; Anemic, 24 hour): −3.77 mmHg | Mean change from Baseline Systolic BP (mmHg) ([2]; Anemic, 24 hour): −5.00 mmHg | Mean change from Baseline Diastolic BP (mmHg) ([2]; Non-Anemic, 3 hour): −2.38 mmHg | Mean change from Baseline MAP (mmHg) ([2]; Non-Anemic, 3 hour): −3.81 mmHg | Mean change from Baseline Systolic BP (mmHg) ([2]; Non-Anemic, 3 hour): −0.50 mmHg | Mean change from Baseline Diastolic BP (mmHg) ([2]; Non-Anemic, 4 hour): −4.00 mmHg | Mean change from Baseline MAP (mmHg) ([2]; Non-Anemic, 4 hour): −3.58 mmHg | Mean change from Baseline Systolic BP (mmHg) ([2]; Non-Anemic, 4 hour): −2.50 mmHg | Mean change from Baseline Diastolic BP (mmHg) ([2]; Non-Anemic, 6 hour): −5.88 mmHg | Mean change from Baseline MAP (mmHg) ([2]; Non-Anemic, 6 hour): −8.00 mmHg | Mean change from Baseline Systolic BP (mmHg) ([2]; Non-Anemic, 6 hour): −12.00 mmHg | Mean change from Baseline Diastolic BP (mmHg) ([2]; Non-Anemic, 12 hour): −1.63 mmHg | Mean change from Baseline MAP (mmHg) ([2]; Non-Anemic, 12 hour): −3.78 mmHg | Mean change from Baseline Systolic BP (mmHg) ([2]; Non-Anemic, 12 hour): −7.88 mmHg | Mean change from Baseline Diastolic BP (mmHg) ([2]; Non-Anemic, 24 hour): −0.88 mmHg | Mean change from Baseline MAP (mmHg) ([2]; Non-Anemic, 24 hour): −8.00 mmHg | Mean change from Baseline Systolic BP (mmHg) ([2]; Non-Anemic, 24 hour): −4.25 mmHg | blood pressure at 1 and 2 hours post dosing ([2]; all CKD subjects, oral, same with placebo, data not shown): small increases in blood pressure | systolic blood pressure (SBP) ([3]; 20 mg/kg oral gavage three times per week): 164.7±26.7 mmHg | systolic blood pressure (SBP) ([3]; 40 mg/kg oral gavage three times per week): 155.4±42.9 mmHg

Source: patent US20140163061A1, “Methods For Reducing Blood Pressure” (FibroGen, Inc., priority 2008, published 2014)
